Values quoted from earlier work in US20020048551A1, “Delivery of biologically active material in a liposomal formulation for administration into the mouth” (priority 1999, published 2002).

Details: tablet absorbed through the buccal mucosa

C[C@]12CCC(=O)C=C1CC[C@@H]1[C@@H]2CC[C@@]2(C)[C@H]1CC[C@]2(C)O [methyltestosterone]
androgenic activity relative to oral tablets: twice
